Results taken from PubChem BioAssay (NCI).
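Where inhibition never reached the appropriate level, the endpoint shown equals the highest concentration tested. Otherwise, values were interpolated linearly from a five-concentration, 48-hour dose response in 96-well plates. GI50 marks 50% less growth. TGI denotes the concentration required for complete inhibition of growth.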

Each compound was assayed on SF-295 CNS (assay: inhibition of tumour cell growth, NCI panel, 48 h).

Row | Compound | GI50 | TGI
1 | CN1CCN(CCCNc2nc3ccc(Oc4ccc(NC(=O)Nc5cc(C(F)(F)F)ccc5F)cc4)cc3[nH]2)CC1 | 3.67 µM | 7.98 µM
2 | CCO/C=N\C1=C(C#N)SC2=N/C(=C\c3ccc(OC)cc3)C(=O)N21 |  | > 100 µM

What follows are compounds tested on NCI-H23 lung (assay: inhibition of tumour cell growth, NCI panel, 48 h).

Row | Compound | TGI | GI50
3 | CC(=O)OC1C(Oc2c(C)cc3c(c2O)[C@@H](C)CC[C@@H]3[C@@H](C)CCC=C(C)C)OCC(O)C1O (some centres undefined) | 34.3 µM | 
4 | Cc1ccc2c(c1)CC1(Cc3ccccc3C1=O)C2=O (centres undefined) | > 100 µM | 
5 | COc1cccc2c1C(=O)c1c(O)c3c(c(O)c1C2=O)CC(O)(C(=O)CO)CC3OC1CC(N2CCOCC2C#N)C(O)C(C)O1 (centres undefined) | 0.128 µM | 
6 | CN1CCN(CCCNc2nc3ccc(Oc4ccc(NC(=O)Nc5cc(C(F)(F)F)ccc5F)cc4)cc3[nH]2)CC1 | 7.9 µM | 4.03 µM
7 | CCO/C=N\C1=C(C#N)SC2=N/C(=C\c3ccc(OC)cc3)C(=O)N21 | > 100 µM | 

Each compound was assayed on MOLT-4 leukemia (assay: inhibition of tumour cell growth, NCI panel, 48 h).

Row | Compound | TGI | GI50
8 | CC(=O)OC1C(Oc2c(C)cc3c(c2O)[C@@H](C)CC[C@@H]3[C@@H](C)CCC=C(C)C)OCC(O)C1O (some centres undefined) | 49.7 µM | 
9 | Cc1ccc2c(c1)CC1(Cc3ccccc3C1=O)C2=O (centres undefined) | > 100 µM | 
10 | CSc1cc(Cl)c(C)cc1S(=O)(=O)NC(=O)NNc1cccc(C(F)(F)F)n1 | 51.8 µM | 
11 | COc1cccc2c1C(=O)c1c(O)c3c(c(O)c1C2=O)CC(O)(C(=O)CO)CC3OC1CC(N2CCOCC2C#N)C(O)C(C)O1 (centres undefined) | < 0.0001 µM | 
12 | CN1CCN(CCCNc2nc3ccc(Oc4ccc(NC(=O)Nc5cc(C(F)(F)F)ccc5F)cc4)cc3[nH]2)CC1 | 9.89 µM | 4.83 µM
13 | CCO/C=N\C1=C(C#N)SC2=N/C(=C\c3ccc(OC)cc3)C(=O)N21 | > 100 µM | 

These compounds were tested on IGROV1 ovarian (assay: inhibition of tumour cell growth, NCI panel, 48 h).

Row | Compound | TGI | GI50
14 | CC(=O)OC1C(Oc2c(C)cc3c(c2O)[C@@H](C)CC[C@@H]3[C@@H](C)CCC=C(C)C)OCC(O)C1O (some centres undefined) | 37.9 µM | 
15 | Cc1ccc2c(c1)CC1(Cc3ccccc3C1=O)C2=O (centres undefined) | > 100 µM | 
16 | Cc1sc2nc(-c3cccc([N+](=O)[O-])c3)c(/C=N/N=C(N)N)n2c1C | 2.59 µM | 
17 | CSc1cc(Cl)c(C)cc1S(=O)(=O)NC(=O)NNc1cccc(C(F)(F)F)n1 | > 100 µM | 
18 | CN1CCN(CCCNc2nc3ccc(Oc4ccc(NC(=O)Nc5cc(C(F)(F)F)ccc5F)cc4)cc3[nH]2)CC1 | > 23.9 µM | 9.62 µM
19 | CCO/C=N\C1=C(C#N)SC2=N/C(=C\c3ccc(OC)cc3)C(=O)N21 | > 100 µM | 

These compounds were tested on M14 melanoma (assay: inhibition of tumour cell growth, NCI panel, 48 h).

Row | Compound | TGI | GI50
20 | CC(=O)OC1C(Oc2c(C)cc3c(c2O)[C@@H](C)CC[C@@H]3[C@@H](C)CCC=C(C)C)OCC(O)C1O (some centres undefined) | 30.9 µM | 
21 | Cc1ccc2c(c1)CC1(Cc3ccccc3C1=O)C2=O (centres undefined) | > 100 µM | 
22 | Cc1sc2nc(-c3cccc([N+](=O)[O-])c3)c(/C=N/N=C(N)N)n2c1C | 2.95 µM | 
23 | CSc1cc(Cl)c(C)cc1S(=O)(=O)NC(=O)NNc1cccc(C(F)(F)F)n1 | > 100 µM | 
24 | COc1cccc2c1C(=O)c1c(O)c3c(c(O)c1C2=O)CC(O)(C(=O)CO)CC3OC1CC(N2CCOCC2C#N)C(O)C(C)O1 (centres undefined) | < 0.0001 µM | 
25 | CN1CCN(CCCNc2nc3ccc(Oc4ccc(NC(=O)Nc5cc(C(F)(F)F)ccc5F)cc4)cc3[nH]2)CC1 | 8.61 µM | 4.54 µM
26 | CCO/C=N\C1=C(C#N)SC2=N/C(=C\c3ccc(OC)cc3)C(=O)N21 | > 100 µM | 

The compounds below were run on OVCAR-4 ovarian (assay: inhibition of tumour cell growth, NCI panel, 48 h).

Row | Compound | TGI | GI50
27 | Cc1ccc2c(c1)CC1(Cc3ccccc3C1=O)C2=O (centres undefined) | > 100 µM | 
28 | CSc1cc(Cl)c(C)cc1S(=O)(=O)NC(=O)NNc1cccc(C(F)(F)F)n1 | > 100 µM | 
29 | CN1CCN(CCCNc2nc3ccc(Oc4ccc(NC(=O)Nc5cc(C(F)(F)F)ccc5F)cc4)cc3[nH]2)CC1 | > 19.5 µM | 5.88 µM
30 | CCO/C=N\C1=C(C#N)SC2=N/C(=C\c3ccc(OC)cc3)C(=O)N21 | 65.6 µM | 

Each compound was assayed on PC-3 prostate (assay: inhibition of tumour cell growth, NCI panel, 48 h).

Row | Compound | TGI | GI50
31 | CC(=O)OC1C(Oc2c(C)cc3c(c2O)[C@@H](C)CC[C@@H]3[C@@H](C)CCC=C(C)C)OCC(O)C1O (some centres undefined) | 39.6 µM | 
32 | Cc1ccc2c(c1)CC1(Cc3ccccc3C1=O)C2=O (centres undefined) | > 100 µM | 
33 | CSc1cc(Cl)c(C)cc1S(=O)(=O)NC(=O)NNc1cccc(C(F)(F)F)n1 | > 100 µM | 
34 | COc1cccc2c1C(=O)c1c(O)c3c(c(O)c1C2=O)CC(O)(C(=O)CO)CC3OC1CC(N2CCOCC2C#N)C(O)C(C)O1 (centres undefined) | < 0.0001 µM | 
35 | CN1CCN(CCCNc2nc3ccc(Oc4ccc(NC(=O)Nc5cc(C(F)(F)F)ccc5F)cc4)cc3[nH]2)CC1 | 10.6 µM | 4.82 µM

Each compound was assayed on SK-MEL-28 melanoma (assay: inhibition of tumour cell growth, NCI panel, 48 h).

Row | Compound | TGI | GI50
36 | Cc1ccc2c(c1)CC1(Cc3ccccc3C1=O)C2=O (centres undefined) | > 100 µM | 
37 | Cc1sc2nc(-c3cccc([N+](=O)[O-])c3)c(/C=N/N=C(N)N)n2c1C | 3.03 µM | 
38 | CSc1cc(Cl)c(C)cc1S(=O)(=O)NC(=O)NNc1cccc(C(F)(F)F)n1 | > 100 µM | 
39 | COc1cccc2c1C(=O)c1c(O)c3c(c(O)c1C2=O)CC(O)(C(=O)CO)CC3OC1CC(N2CCOCC2C#N)C(O)C(C)O1 (centres undefined) | < 0.0001 µM | 
40 | CN1CCN(CCCNc2nc3ccc(Oc4ccc(NC(=O)Nc5cc(C(F)(F)F)ccc5F)cc4)cc3[nH]2)CC1 | 7.73 µM | 4.24 µM
41 | CCO/C=N\C1=C(C#N)SC2=N/C(=C\c3ccc(OC)cc3)C(=O)N21 | > 100 µM | 
